Assay results published in patent EP0912751B1, “PROCESS FOR PREPARATION OF D-PROLINE D[…] MEANS OF MICRO-ORGANISMS” (LONZA AG, priority 1996, dated 1998).

Tested on: Amidinohydrolase
Test: Enzyme characterisation (kinetics and inhibition) with whole cells
Type: biochemical, Pseudomonas aeruginosa (DSM 10581)
Method: Die Enzymcharakterisierung wurde mit ganzen Zellen von Pseudomonas aeruginosa (DSM 10581) durchgeführt. Dabei betrug die optische Dichte der Zellsuspension OD600 = 17. Der Einfluss der Temperatur wurde in 100 mM Phosphatpuffer (pH 7 - 8) bei einer Substratkonzentration von 25 mM L-α-Chlor-δ-guanidinvaleriansäure bestimmt. Dabei zeigte sich, dass bei 37 °C eine um 40% höhere Aktivität als bei 30 °C erhalten wurde. Der Einfluss des pH-Wertes wurde in gleichem Puffer, bei gleicher Substratkonzentration und bei einer Temperatur von 37 °C ermittelt. Gemessen wurde die Aktivität bei pH 7; pH 7,5; pH 8,0, pH 8,5. Dabei wurde festgestellt, dass das pH-Optimum bei pH 8,5 lag. Durch Einsatz von verschiedenen Konzentrationen an L-α-Chlor-δ-guanidinvaleriansäure wurde der KM-Wert und Vmax bei einer Temperatur von 37 °C, in 100 mM Phosphatpuffer (pH 8,5), bestimmt. Der KM-Wert betrug 85,2 mmol / l und Vmax 0,38 mmol / l / min (Fig. 3).
Durch Zugabe von verschiedenen Konzentrationen an L-α-Chlor-δ-aminovaleriansäure (hergestellt aus Ornithin analog zu Beispiel 6) konnte eine Hemmung nachgewiesen werden.

Structure (SMILES)	Hemmung (inhibitor at a concentration of 50 mM (Fig. 4))	Hemmung der Amidinohydrolase (listed as a property of the enzyme, no concentration given)	Vmax (substrate of the enzyme, 37 °C, 100 mM Phosphatpuffer (pH 8,5), whole cells, OD600 = 17)	Km (substrate of the enzyme, 37 °C, 100 mM Phosphatpuffer (pH 8,5), whole cells, OD600 = 17, read-out: KM-Wert) [mM]
NCCC[C@H](Cl)C(=O)O [L-α-Chlor-δ-aminovaleriansäure]	vollständige Hemmung			
N=C(N)NCCC[C@H](Cl)C(=O)O [L-α-Chlor-δ-guanidinvaleriansäure]		gehemmt	0,38 mmol / l / min	85.2
